Where two headings read alike, the source gives them in different places.
Columns and labels:
HT-29 cells [1] = test: Fluorescent/confocal microscopy of Hypoxyfluor and CA IX-Rhodamine on HT-29 cells; type: cell-based, human; settings: 1 hour incubation, unbound conjugate washed off
Experimental: HT-29 cells (10^5) were seeded into chambered coverglass plates and allowed to grow to confluence over 48-72 hr. […] After incubation for 1 hour at 37° C., cells were rinsed three times with 1 mL of incubation solution to remove unbound fluorescence and 0.5 mL of fresh medium was added to the wells.
HT-29 cells that naturally express CA IX were used to determine cancer cell uptake and binding affinity of the newly synthesized conjugate. […] Fluorescence was quantitated as described above to determine binding affinity.

HT-29 cells [2] = test: Binding of Hypoxyfluor to HT-29 cells (cell associated fluorescence); parameters: species or system human
Experimental: After washing, the remaining fluorescence was quantitated by fluorescence spectroscopy. Error bars represent standard deviation.
HT-29 cells (10^5) were seeded into 24-well BD purecoat amine plates and allowed to grow to confluence over 48-72 hr. Spent medium was replaced with 0.5 mL of fresh medium containing 0.5% bovine serum albumin, and various concentrations of the dye conjugate alone or the dye conjugate plus 100-fold excess CA IX ligand were added. After incubation for 1 hour at 37° C., cells were rinsed with incubation solution (2×1.0 mL) to remove unbound fluorescence and dissolved in 0.5 mL of 1% aqueous sodium dodecyl sulfate. Cell associated fluorescence was then measured using an excitation of 745 nm and emission of 790 nm. All experiments were performed in triplicate. The dissociation constant (KD) was calculated from a plot of cell bound fluorescence (RFU) versus the concentration of fluorescent conjugate added using the program, Graphpad Prism, and assuming a noncooperative single site binding equilibrium.

HT-29 tumor xenografts = type: in vivo, mice
Experimental: Mice bearing HT-29 tumors were injected via tail vein with 4 nmol Hypoxyfluor alone or in combination with 100-fold excess CA IX inhibitor. Fluorescence images were acquired 4 hours post injection.
Tissues and organs were excised after whole animal imaging and the fluorescence images of the isolated tissues were acquired.
Mice bearing HT-29 tumors were injected via tail vein with the indicated concentrations of Hypoxyfluor and fluorescence images were acquired 4 hours post injection.
Using a 25-gauge needle, six-week-old female nu/nu mice were inoculated subcutaneously in their shoulders with HT-29 cells in RPMI1640 medium (5.0×10^6 cells per mouse). Tumor growth was measured in 2 perpendicular directions every 2 days with a caliper. Tumor volumes were calculated using the formula 0.5×L×W^2, where L is the measurement of the longest axis and W is the measurement of the axis perpendicular to L. Tumor bearing mice were treated via tail vein injection with different concentrations of Hypoxyfluor in the presence or absence of 100-fold CA IX ligand to block all unoccupied CA IX binding sites. Mice were imaged 4 hours post injection using a Caliper IVIS Lumina II Imaging station coupled to an ISOON5160 Andor Nikon camera equipped with Living Image Software Version 4.0. Image acquisition settings were as follows: lamp level, high; excitation, […]; emission, ICG; epi illumination; binning (M) 4; FOV, 12.5; f-stop, 4; acquisition time, 1 s.

HT-29 cells [3] = test: 99mTc conjugates binding to HT-29 cells (apparent KD, gamma counting); parameters: species or system human
Experimental: HT-29 cells (150,000 cells/well in 500 μL) were seeded into 24-well Falcon plates and allowed to form monolayers over 48 h. […] After incubating for 1 h at 37° C., cells were rinsed twice with 1 mL of medium and 1 mL of tris buffer. After dissolving in 0.5 mL of 0.25 M NaOH (aq), cells were transferred into individual γ-counter tubes and radioactivity was counted using a γ-counter (Packard, Packard Instrument Company). Apparent KD was calculated by plotting bound radioactivity versus the concentration of radiotracer using GraphPad Prism 4.

HT-29 xenografts = settings: mouse, in vivo
Experimental: Additional mice were simultaneously injected with 100 nmol of unlabeled L2 or L3 ligand. Major tissues/organs were removed and the amount of radioactivity was determined. The percentage of injected dose/g of tissue was calculated and plotted. Error bars represent standard deviation.
Five-week-old male nu/nu mice were inoculated subcutaneously with HT-29 cells (5.0×10^6/mouse) on their shoulders. Growth of the tumors was measured in two perpendicular directions every 2 days using a caliper (body weights were monitored on the same schedule), and the volumes of the tumors were calculated as 0.5×L×W^2 (L=longest axis and W=axis perpendicular to L in millimeters). […] At various times, animals were sacrificed by CO2 asphyxiation. Images were acquired by shielding the kidneys via a Kodak Imaging Station (In-Vivo FX, Eastman Kodak Company) in combination with CCD camera and Kodak molecular imaging software (version 4.0). Radioimages: illumination source=radio isotope, acquisition time=3 min, f-stop=4, focal plane=5, FOV=160, binning=4. […] Radioactivity of preweighed tissues and ^99mTc-bound conjugates (10 nmol, 150 μCi) in saline (100 μL) was counted in a γ-counter. CPM values were decay corrected, and results were calculated as % injected dose (ID)/gram of wet tissue.

[4] = 4 nmol tail vein, 4 hours post injection

Compound | location of binding on cultured HT-29 cells (HT-29 cells [1]) | Kd (HT-29 cells [2]; 1 hour at 37° C., excitation 745 nm, emission 790 nm, triplicate, read-out: apparent dissociation constant) [nM] | binding after pre-incubation with 100-fold excess of the unconjugated ligand (HT-29 cells [2]; HT-29 cells) | whole animal fluorescence (HT-29 tumor xenografts; [4]) | whole animal fluorescence with 400 nmol CA IX ligand (HT-29 tumor xenografts; [4]) | whole body fluorescence, dose escalation (HT-29 tumor xenografts; 40 nmol/mouse) | whole body fluorescence, dose escalation (HT-29 tumor xenografts; low and intermediate doses (3 and 13 nmol)) | Kd (HT-29 cells [3]; 99mTc-bound conjugate, 1 h at 37° C., read-out: Binding Affinity (apparent KD)) [nM] | decrease of binding by addition of the PEG12-EC20 (HT-29 cells [3]; binding affinity of conjugate versus reported Ki of original ligand) [fold] | overall percentage of the injected dose retained in the tissues (HT-29 xenografts)
COC(=O)N(CCN(CC(=O)NCCOCCOCCOCCOCCOCCOCCOCCOCCOCCOCCOCCOCCC(=O)CCCc1ccc(OC2=C(/C=C/C3=[N+](CCCCS(=O)(=O)O)c4ccc(S(=O)(=O)O)cc4C3(C)C)CCC/C2=C\C=C2\N(CCCCS(=O)(=O)O)c3ccc(S(=O)(=O)O)cc3C2(C)C)cc1)CC(=O)Nc1ccc(S(N)(=O)=O)cc1)CC(=O)Nc1ccc(S(N)(=O)=O)cc1 [Hypoxyfluor] | binding was seen on both the cell surface and internal endosomes | 45 | binding was competed | predominately detected in the tumor | no fluorescent signal could be detected | nontumor associated fluorescence became apparent | fluorescence was restricted to the tumor | – | – | –
N[C@H](CNC(=O)CCOCCOCCOCCOCCOCCOCCOCCOCCOCCOCCOCCOCCNC(=O)CN(CCN(CC(=O)O)CC(=O)Nc1ccc(S(N)(=O)=O)cc1)CC(=O)Nc1ccc(S(N)(=O)=O)cc1)C(=O)N[C@@H](CC(=O)O)C(=O)NC[C@H](CS)C(=O)O [L2-PEG12-EC20] | – | – | – | – | – | – | – | 54 | ~7 | somewhat lower overall percentage of the injected dose being retained in the tissues

Reference: US11925696B2, “Carbonic anhydrase IX targeting agents and methods” (priority 2016, dated 2024)
